# Reference: ChEMBL document CHEMBL1150976, “The selectivity of protein kinase inhibitors: a further update” (Biochem J, 2007)
# Assays:
# [1] = molecular target: Mitogen-activated protein kinase 1 (Homo sapiens) (UniProt P28482); experiment: Percentage ERK2 activity remaining in the presence of 0.1uM inhibitor
# [2] = molecular target: MAP/microtubule affinity-regulating kinase 3 (Homo sapiens) (UniProt P27448); experiment: Percentage MARK3 activity remaining in the presence of 0.1uM inhibitor
# [3] = molecular target: T1, Serine/threonine-protein kinase Sgk1 (Homo sapiens) (UniProt O00141); experiment: Percentage SGK1 activity remaining in the presence of 0.1uM inhibitor
# T1 sequence (whole entry): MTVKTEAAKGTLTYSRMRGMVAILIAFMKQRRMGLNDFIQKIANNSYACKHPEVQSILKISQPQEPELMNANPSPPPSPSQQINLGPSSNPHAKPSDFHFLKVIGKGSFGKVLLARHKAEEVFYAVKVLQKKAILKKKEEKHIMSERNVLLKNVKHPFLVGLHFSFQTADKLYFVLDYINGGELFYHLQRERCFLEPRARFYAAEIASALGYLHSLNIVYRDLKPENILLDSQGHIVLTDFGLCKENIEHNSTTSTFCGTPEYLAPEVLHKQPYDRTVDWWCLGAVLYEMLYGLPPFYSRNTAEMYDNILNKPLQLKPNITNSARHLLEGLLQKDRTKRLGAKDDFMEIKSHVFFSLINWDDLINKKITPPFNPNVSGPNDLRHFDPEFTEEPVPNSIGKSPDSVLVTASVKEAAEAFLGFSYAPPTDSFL
# [4] = molecular target: T2, Serine/threonine-protein kinase BRSK2 (Homo sapiens) (UniProt Q8IWQ3); experiment: Percentage BRSK2 activity remaining in the presence of 0.1uM inhibitor
# T2 sequence (whole entry): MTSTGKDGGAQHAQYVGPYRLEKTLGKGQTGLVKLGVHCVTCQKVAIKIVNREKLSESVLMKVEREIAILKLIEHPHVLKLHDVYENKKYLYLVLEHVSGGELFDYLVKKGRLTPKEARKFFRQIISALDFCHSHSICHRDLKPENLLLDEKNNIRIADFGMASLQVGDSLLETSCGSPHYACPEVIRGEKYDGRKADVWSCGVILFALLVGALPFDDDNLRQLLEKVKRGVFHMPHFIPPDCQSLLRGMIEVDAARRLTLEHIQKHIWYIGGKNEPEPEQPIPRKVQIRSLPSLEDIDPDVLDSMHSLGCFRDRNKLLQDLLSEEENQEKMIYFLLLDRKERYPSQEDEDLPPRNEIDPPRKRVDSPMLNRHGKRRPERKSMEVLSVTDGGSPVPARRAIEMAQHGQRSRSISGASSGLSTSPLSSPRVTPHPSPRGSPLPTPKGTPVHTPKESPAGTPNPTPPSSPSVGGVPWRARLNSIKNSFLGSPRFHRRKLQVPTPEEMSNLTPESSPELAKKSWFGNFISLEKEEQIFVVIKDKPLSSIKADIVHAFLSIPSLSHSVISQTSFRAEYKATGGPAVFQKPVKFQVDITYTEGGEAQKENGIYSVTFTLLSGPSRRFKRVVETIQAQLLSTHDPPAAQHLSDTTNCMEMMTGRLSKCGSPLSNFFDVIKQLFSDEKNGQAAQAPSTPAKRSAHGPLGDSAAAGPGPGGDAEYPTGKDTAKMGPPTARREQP
# Rattus norvegicus = species: Rattus norvegicus; experiment: Percentage AMPK activity remaining in the presence of 0.1uM inhibitor
# [5] = molecular target: Mitogen-activated protein kinase 9 (Homo sapiens, UniProt P45984); experiment: Percentage JNK2 activity remaining in the presence of 0.1uM inhibitor
# Mitogen-activated protein kinase 9, sequence (P45984 whole entry, looked up): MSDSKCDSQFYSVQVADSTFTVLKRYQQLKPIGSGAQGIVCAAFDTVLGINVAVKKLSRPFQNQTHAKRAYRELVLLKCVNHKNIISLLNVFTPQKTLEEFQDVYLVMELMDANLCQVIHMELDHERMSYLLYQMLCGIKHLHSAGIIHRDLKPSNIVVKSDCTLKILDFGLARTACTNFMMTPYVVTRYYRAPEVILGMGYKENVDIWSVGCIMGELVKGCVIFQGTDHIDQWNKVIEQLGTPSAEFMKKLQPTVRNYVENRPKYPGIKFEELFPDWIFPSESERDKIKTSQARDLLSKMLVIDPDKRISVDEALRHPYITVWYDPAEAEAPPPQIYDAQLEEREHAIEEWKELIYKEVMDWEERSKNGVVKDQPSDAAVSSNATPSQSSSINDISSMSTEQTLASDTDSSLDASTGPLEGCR
# [6] = molecular target: Rho-associated protein kinase 2 (Homo sapiens) (UniProt O75116); experiment: Percentage ROCK2 activity remaining in the presence of 0.1uM inhibitor
# Rho-associated protein kinase 2 (Homo sapiens), sequence (O75116 whole entry, looked up): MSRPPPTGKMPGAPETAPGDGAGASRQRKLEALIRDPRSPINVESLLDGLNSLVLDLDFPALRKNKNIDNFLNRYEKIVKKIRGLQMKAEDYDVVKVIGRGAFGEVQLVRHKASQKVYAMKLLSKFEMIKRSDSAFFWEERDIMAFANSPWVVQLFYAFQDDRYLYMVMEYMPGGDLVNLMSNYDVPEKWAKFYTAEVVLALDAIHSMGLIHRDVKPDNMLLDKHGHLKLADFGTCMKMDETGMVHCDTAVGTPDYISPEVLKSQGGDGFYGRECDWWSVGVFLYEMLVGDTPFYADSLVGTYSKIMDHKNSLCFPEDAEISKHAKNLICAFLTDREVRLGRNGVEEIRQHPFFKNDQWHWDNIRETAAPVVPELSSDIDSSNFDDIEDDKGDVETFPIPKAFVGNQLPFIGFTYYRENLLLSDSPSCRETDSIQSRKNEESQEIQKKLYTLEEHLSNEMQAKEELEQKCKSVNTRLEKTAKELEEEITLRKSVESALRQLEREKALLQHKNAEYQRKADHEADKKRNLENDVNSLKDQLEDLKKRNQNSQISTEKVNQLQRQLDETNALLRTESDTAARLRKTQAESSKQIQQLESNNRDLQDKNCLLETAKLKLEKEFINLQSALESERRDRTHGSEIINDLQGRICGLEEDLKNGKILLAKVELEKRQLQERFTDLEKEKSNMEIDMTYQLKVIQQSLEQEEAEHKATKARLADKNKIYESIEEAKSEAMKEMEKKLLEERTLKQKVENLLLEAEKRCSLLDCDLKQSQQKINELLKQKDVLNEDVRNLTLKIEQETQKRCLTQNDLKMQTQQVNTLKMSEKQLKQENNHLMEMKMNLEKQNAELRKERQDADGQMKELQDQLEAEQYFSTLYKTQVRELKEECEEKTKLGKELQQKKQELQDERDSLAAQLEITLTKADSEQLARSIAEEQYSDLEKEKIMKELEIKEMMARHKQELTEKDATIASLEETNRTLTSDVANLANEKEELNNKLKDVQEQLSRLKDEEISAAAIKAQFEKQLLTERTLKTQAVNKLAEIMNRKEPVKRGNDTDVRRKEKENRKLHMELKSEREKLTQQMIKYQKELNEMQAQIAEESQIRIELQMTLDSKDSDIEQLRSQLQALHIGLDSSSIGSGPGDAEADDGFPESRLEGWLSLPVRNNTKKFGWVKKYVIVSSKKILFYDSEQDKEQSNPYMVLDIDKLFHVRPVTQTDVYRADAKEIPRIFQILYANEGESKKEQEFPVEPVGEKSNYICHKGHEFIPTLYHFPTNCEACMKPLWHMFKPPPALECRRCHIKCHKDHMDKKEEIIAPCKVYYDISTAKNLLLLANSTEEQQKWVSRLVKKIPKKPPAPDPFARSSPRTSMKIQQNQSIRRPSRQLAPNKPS
# [7] = molecular target: T3, Mitogen-activated protein kinase 13 (Homo sapiens) (UniProt O15264); experiment: Percentage p38delta activity remaining in the presence of 0.1uM inhibitor
# T3 sequence (whole entry): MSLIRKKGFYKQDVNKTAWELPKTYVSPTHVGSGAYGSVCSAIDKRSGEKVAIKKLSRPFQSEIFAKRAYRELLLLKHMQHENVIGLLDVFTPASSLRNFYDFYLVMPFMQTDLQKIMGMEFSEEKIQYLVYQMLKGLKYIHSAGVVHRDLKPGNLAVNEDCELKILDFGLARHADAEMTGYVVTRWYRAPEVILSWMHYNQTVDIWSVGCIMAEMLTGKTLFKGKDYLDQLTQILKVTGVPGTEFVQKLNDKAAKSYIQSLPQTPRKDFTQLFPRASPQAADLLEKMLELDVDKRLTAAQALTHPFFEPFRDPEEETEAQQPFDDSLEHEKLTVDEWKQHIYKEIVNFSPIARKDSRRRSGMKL
# [8] = molecular target: T4, MAP kinase-activated protein kinase 5 (Homo sapiens) (UniProt Q8IW41); experiment: Percentage PRAK activity remaining in the presence of 0.1uM inhibitor
# T4 sequence (whole entry): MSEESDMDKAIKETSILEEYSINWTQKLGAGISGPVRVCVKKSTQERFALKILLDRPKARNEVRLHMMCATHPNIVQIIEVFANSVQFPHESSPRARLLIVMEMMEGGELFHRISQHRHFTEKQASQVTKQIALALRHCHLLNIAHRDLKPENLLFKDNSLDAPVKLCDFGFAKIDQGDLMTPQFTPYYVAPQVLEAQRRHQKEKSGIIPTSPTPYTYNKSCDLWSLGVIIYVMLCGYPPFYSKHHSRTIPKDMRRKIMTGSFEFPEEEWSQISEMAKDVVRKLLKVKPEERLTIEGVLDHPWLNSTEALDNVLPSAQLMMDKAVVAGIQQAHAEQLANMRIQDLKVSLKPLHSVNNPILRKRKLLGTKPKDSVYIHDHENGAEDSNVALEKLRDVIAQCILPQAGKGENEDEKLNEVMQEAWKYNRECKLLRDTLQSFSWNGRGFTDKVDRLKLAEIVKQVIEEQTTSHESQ
# [9] = molecular target: T5, Serine/threonine-protein kinase Chk1 (Homo sapiens) (UniProt O14757); experiment: Percentage CHK1 activity remaining in the presence of 0.1uM inhibitor
# T5 sequence (whole entry): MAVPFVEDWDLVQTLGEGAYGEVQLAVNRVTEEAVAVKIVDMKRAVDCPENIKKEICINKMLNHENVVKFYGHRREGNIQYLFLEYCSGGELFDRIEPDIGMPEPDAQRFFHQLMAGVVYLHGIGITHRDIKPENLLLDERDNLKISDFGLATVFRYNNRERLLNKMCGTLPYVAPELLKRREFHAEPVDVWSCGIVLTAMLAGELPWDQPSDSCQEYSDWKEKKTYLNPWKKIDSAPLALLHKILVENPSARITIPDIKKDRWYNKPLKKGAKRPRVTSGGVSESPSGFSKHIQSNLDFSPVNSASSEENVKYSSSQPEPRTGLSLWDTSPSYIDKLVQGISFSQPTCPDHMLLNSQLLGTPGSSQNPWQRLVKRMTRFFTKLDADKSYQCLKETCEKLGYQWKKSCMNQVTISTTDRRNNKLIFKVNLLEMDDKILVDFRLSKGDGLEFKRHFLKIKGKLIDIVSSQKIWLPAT
# [10] = molecular target: Serine/threonine-protein kinase Chk2 (Homo sapiens) (UniProt O96017); experiment: Percentage CHK2 activity remaining in the presence of 0.1uM inhibitor
# Serine/threonine-protein kinase Chk2 (Homo sapiens), sequence (O96017 whole entry): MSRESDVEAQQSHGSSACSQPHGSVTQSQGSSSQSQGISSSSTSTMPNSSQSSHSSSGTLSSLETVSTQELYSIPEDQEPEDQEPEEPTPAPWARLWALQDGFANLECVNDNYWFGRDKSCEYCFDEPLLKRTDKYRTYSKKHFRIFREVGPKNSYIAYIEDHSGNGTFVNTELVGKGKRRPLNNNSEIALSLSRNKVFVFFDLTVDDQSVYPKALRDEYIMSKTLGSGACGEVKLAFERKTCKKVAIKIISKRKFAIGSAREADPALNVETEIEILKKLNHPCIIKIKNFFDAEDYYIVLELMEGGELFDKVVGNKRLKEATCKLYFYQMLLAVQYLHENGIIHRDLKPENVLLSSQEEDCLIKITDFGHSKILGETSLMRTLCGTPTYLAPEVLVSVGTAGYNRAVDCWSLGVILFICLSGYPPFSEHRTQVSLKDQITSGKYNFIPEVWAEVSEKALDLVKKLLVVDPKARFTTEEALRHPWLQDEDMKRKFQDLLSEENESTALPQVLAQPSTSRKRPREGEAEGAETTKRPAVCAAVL
# Mitogen-activated protein kinase 1 (Homo sapiens), sequence (P28482 whole entry): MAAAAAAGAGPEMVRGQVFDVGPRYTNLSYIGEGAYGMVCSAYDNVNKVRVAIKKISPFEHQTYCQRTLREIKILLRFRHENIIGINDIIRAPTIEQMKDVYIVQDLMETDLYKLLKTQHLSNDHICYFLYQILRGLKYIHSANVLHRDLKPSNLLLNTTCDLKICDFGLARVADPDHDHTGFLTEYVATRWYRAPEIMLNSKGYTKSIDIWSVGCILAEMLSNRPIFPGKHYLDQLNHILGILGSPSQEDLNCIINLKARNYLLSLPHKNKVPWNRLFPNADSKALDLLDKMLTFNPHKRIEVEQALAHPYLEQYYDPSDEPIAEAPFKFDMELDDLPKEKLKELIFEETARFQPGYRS
# MAP/microtubule affinity-regulating kinase 3 (Homo sapiens), sequence (P27448 whole entry, looked up): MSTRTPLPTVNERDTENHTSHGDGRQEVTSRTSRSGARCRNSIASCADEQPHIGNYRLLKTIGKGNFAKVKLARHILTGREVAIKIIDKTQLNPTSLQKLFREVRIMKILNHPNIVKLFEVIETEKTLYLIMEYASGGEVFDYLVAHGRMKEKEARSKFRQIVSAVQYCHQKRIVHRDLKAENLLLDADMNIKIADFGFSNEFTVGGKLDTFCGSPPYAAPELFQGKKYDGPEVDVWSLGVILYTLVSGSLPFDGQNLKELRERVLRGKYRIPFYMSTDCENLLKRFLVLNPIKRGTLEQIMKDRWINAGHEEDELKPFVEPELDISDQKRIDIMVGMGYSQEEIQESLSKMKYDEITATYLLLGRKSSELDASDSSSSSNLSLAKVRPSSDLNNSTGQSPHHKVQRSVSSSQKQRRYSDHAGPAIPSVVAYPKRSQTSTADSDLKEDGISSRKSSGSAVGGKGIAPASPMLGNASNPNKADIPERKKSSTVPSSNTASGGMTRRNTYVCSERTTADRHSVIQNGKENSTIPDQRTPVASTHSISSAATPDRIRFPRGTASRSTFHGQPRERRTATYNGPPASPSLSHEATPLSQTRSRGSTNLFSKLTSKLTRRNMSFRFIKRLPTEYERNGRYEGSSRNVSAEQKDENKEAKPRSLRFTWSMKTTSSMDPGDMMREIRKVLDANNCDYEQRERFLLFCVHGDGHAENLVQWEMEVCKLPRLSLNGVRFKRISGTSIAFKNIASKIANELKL
compound,measurement,setting,value
CC(C)[C@H](CO)Nc1nc(Nc2cccc(Cl)c2)c2ncn(C(C)C)c2n1 [PURVALANOLA],Activity,[1],79%
same,Activity,[2],89%
same,Activity,[3],82%
same,Activity,[4],76%
same,Activity,Rattus norvegicus,89%
same,Activity,[5],96%
same,Activity,[6],93%
same,Activity,[7],98%
same,Activity,[8],91%
same,Activity,[9],95%
same,Activity,[10],94%
Cn1c2ccccc2c2c3c(c4c5ccccc5n(CCC#N)c4c21)CNC3=O,Activity,[1]; filed as antagonist,41%
same,Activity,[2]; filed as antagonist,12%
same,Activity,[3]; filed as antagonist,44%
same,Activity,[4]; filed as antagonist,46%
same,Activity,[5],68%
same,Activity,[7],82%
same,Activity,[8],76%
same,Activity,[9]; filed as antagonist,1%
same,Activity,[10]; filed as antagonist,43%
O=C(NCCCNc1nc(Nc2cccc(NC(=O)N3CCCC3)c2)ncc1I)c1cccs1,Activity,[1],71%
same,Activity,[2]; filed as antagonist,3%
same,Activity,[3]; filed as antagonist,48%
same,Activity,[4]; filed as antagonist,45%
same,Activity,Rattus norvegicus; filed as antagonist,11%
same,Activity,[5],70%
same,Activity,[6]; filed as antagonist,28%
same,Activity,[7],76%
same,Activity,[8],83%
same,Activity,[9]; filed as antagonist,46%
same,Activity,[10]; filed as antagonist,46%
CC(C)CCN1c2nc(Nc3cc(F)c(O)c(F)c3)ncc2N(C)C(=O)C1C (stereo not drawn),Activity,[1],85%
same,Activity,[2],79%
same,Activity,[3],112%
same,Activity,[4],78%
same,Activity,Rattus norvegicus,108%
same,Activity,[5],115%
same,Activity,[6],84%
same,Activity,[7],105%
same,Activity,[8],89%
same,Activity,[9],73%
same,Activity,[10],96%
Cn1cc(C2=C(c3cn(CCCSC(=N)N)c4ccccc34)C(=O)NC2=O)c2ccccc21,Activity,[1],92%
same,Activity,[2],77%
same,Activity,[3]; filed as antagonist,39%
same,Activity,[4],65%
same,Activity,Rattus norvegicus,84%
same,Activity,[5],92%
same,Activity,[6],88%
same,Activity,[7],92%
same,Activity,[8],80%
same,Activity,[9],59%
same,Activity,[10],99%
CN(C)C[C@@H]1CCn2cc(c3ccccc32)C2=C(C(=O)NC2=O)c2cn(c3ccccc23)CCO1,Activity,[1],94%
same,Activity,[2],73%
same,Activity,[3],66%
same,Activity,Rattus norvegicus,71%
same,Activity,[5],99%
same,Activity,[6],94%
same,Activity,[8],82%
same,Activity,[9],71%
same,Activity,[10],92%
Cc1n[nH]c2ccc(-c3cncc(OC[C@@H](N)Cc4c[nH]c5ccccc45)c3)cc12,Activity,[1],64%
same,Activity,[2],83%
same,Activity,[3],53%
same,Activity,[4],79%
same,Activity,Rattus norvegicus,67%
same,Activity,[5],78%
same,Activity,[6]; filed as antagonist,8%
same,Activity,[7],68%
same,Activity,[8],107%
same,Activity,[9],99%
same,Activity,[10],95%
